Data published in ChEMBL document CHEMBL3044736, “Synthesis, characterization, solvatochromic properties, and antimicrobial evaluation of 5-acetyl-2-thioxo-dihydro-pyrimidine-4,6-dione-based chalcones” (2013).
In brackets after ≈: the same amount, converted by molar mass.

Key:
Type in all cases: functional
Staphylococcus aureus [1] = test: Antimicrobial activity against Staphylococcus aureus MTCC 96 assessed as diameter of growth inhibition zone at 25 ug/ml after 18-24 hr by agar cup diffusion method; settings: read-out: DIZ
Penicillium [2] = test: Antimicrobial activity against Penicillium wild strain by agar cup diffusion method
Aspergillus clavatus [3] = test: Antimicrobial activity against Aspergillus clavatus MTCC 1323 assessed as diameter of growth inhibition zone at 50 ug/ml after 48-96 hr by agar cup diffusion method; settings: read-out: DIZ
Klebsiella pneumoniae [4] = test: Antimicrobial activity against Klebsiella pneumoniae MTCC 109 assessed as diameter of growth inhibition zone at 250 ug/ml after 18-24 hr by agar cup diffusion method; settings: read-out: DIZ
Candida albicans [5] = test: Antimicrobial activity against Candida albicans MTCC 227 assessed as diameter of growth inhibition zone at 100 ug/ml after 48-96 hr by agar cup diffusion method; settings: read-out: DIZ
Streptococcus pyogenes [6] = test: Antimicrobial activity against Streptococcus pyogenes MTCC 442 assessed as diameter of growth inhibition zone at 25 ug/ml after 18-24 hr by agar cup diffusion method; settings: read-out: DIZ
Klebsiella pneumoniae [7] = test: Antimicrobial activity against Klebsiella pneumoniae MTCC 109 assessed as diameter of growth inhibition zone at 25 ug/ml after 18-24 hr by agar cup diffusion method; settings: read-out: DIZ
Pseudomonas aeruginosa [8] = test: Antimicrobial activity against Pseudomonas aeruginosa MTCC 1688 assessed as diameter of growth inhibition zone at 100 ug/ml after 18-24 hr by agar cup diffusion method; settings: read-out: DIZ
Candida albicans [9] = test: Antimicrobial activity against Candida albicans MTCC 227 by agar cup diffusion method
Staphylococcus aureus [10] = test: Antimicrobial activity against Staphylococcus aureus MTCC 96 assessed as diameter of growth inhibition zone at 50 ug/ml after 18-24 hr by agar cup diffusion method; settings: read-out: DIZ
Escherichia coli [11] = test: Antimicrobial activity against Escherichia coli MTCC 443 assessed as diameter of growth inhibition zone at 50 ug/ml after 18-24 hr by agar cup diffusion method; settings: read-out: DIZ
Klebsiella pneumoniae [12] = test: Antimicrobial activity against Klebsiella pneumoniae MTCC 109 assessed as diameter of growth inhibition zone at 100 ug/ml after 18-24 hr by agar cup diffusion method; settings: read-out: DIZ
Klebsiella pneumoniae [13] = test: Antimicrobial activity against Klebsiella pneumoniae MTCC 109 by agar cup diffusion method
Candida albicans [14] = test: Antimicrobial activity against Candida albicans MTCC 227 assessed as diameter of growth inhibition zone at 25 ug/ml after 48-96 hr by agar cup diffusion method; settings: read-out: DIZ
Trichophyton rubrum [15] = test: Antimicrobial activity against Trichophyton rubrum MTCC 296 assessed as diameter of growth inhibition zone at 250 ug/ml after 48-96 hr by agar cup diffusion method; settings: read-out: DIZ
Aspergillus clavatus [16] = test: Antimicrobial activity against Aspergillus clavatus MTCC 1323 assessed as diameter of growth inhibition zone at 100 ug/ml after 48-96 hr by agar cup diffusion method; settings: read-out: DIZ
Pseudomonas aeruginosa [17] = test: Antimicrobial activity against Pseudomonas aeruginosa MTCC 1688 assessed as diameter of growth inhibition zone at 250 ug/ml after 18-24 hr by agar cup diffusion method; settings: read-out: DIZ
Staphylococcus aureus [18] = test: Antimicrobial activity against Staphylococcus aureus MTCC 96 assessed as diameter of growth inhibition zone at 250 ug/ml after 18-24 hr by agar cup diffusion method; settings: read-out: DIZ
Candida albicans [19] = test: Antimicrobial activity against Candida albicans MTCC 227 assessed as diameter of growth inhibition zone at 50 ug/ml after 48-96 hr by agar cup diffusion method; settings: read-out: DIZ
Escherichia coli [20] = test: Antimicrobial activity against Escherichia coli MTCC 443 assessed as diameter of growth inhibition zone at 250 ug/ml after 18-24 hr by agar cup diffusion method; settings: read-out: DIZ
Streptococcus pyogenes [21] = test: Antimicrobial activity against Streptococcus pyogenes MTCC 442 assessed as diameter of growth inhibition zone at 50 ug/ml after 18-24 hr by agar cup diffusion method; settings: read-out: DIZ
Streptococcus pyogenes [22] = test: Antimicrobial activity against Streptococcus pyogenes MTCC 442 by agar cup diffusion method
Streptococcus pyogenes [23] = test: Antimicrobial activity against Streptococcus pyogenes MTCC 442 assessed as diameter of growth inhibition zone at 250 ug/ml after 18-24 hr by agar cup diffusion method; settings: read-out: DIZ
Escherichia coli [24] = test: Antimicrobial activity against Escherichia coli MTCC 443 by agar cup diffusion method
Staphylococcus aureus [25] = test: Antimicrobial activity against Staphylococcus aureus MTCC 96 by agar cup diffusion method
Penicillium [26] = test: Antimicrobial activity against Penicillium wild strain assessed as diameter of growth inhibition zone at 250 ug/ml after 48-96 hr by agar cup diffusion method; settings: read-out: DIZ
Trichophyton rubrum [27] = test: Antimicrobial activity against Trichophyton rubrum MTCC 296 assessed as diameter of growth inhibition zone at 50 ug/ml after 48-96 hr by agar cup diffusion method; settings: read-out: DIZ
Trichophyton rubrum [28] = test: Antimicrobial activity against Trichophyton rubrum MTCC 296 by agar cup diffusion method
Aspergillus clavatus [29] = test: Antimicrobial activity against Aspergillus clavatus MTCC 1323 assessed as diameter of growth inhibition zone at 25 ug/ml after 48-96 hr by agar cup diffusion method; settings: read-out: DIZ
Klebsiella pneumoniae [30] = test: Antimicrobial activity against Klebsiella pneumoniae MTCC 109 assessed as diameter of growth inhibition zone at 50 ug/ml after 18-24 hr by agar cup diffusion method; settings: read-out: DIZ
Pseudomonas aeruginosa [31] = test: Antimicrobial activity against Pseudomonas aeruginosa MTCC 1688 assessed as diameter of growth inhibition zone at 50 ug/ml after 18-24 hr by agar cup diffusion method; settings: read-out: DIZ
Pseudomonas aeruginosa [32] = test: Antimicrobial activity against Pseudomonas aeruginosa MTCC 1688 assessed as diameter of growth inhibition zone at 25 ug/ml after 18-24 hr by agar cup diffusion method; settings: read-out: DIZ
Aspergillus clavatus [33] = test: Antimicrobial activity against Aspergillus clavatus MTCC 1323 by agar cup diffusion method
Staphylococcus aureus [34] = test: Antimicrobial activity against Staphylococcus aureus MTCC 96 assessed as diameter of growth inhibition zone at 100 ug/ml after 18-24 hr by agar cup diffusion method; settings: read-out: DIZ
Trichophyton rubrum [35] = test: Antimicrobial activity against Trichophyton rubrum MTCC 296 assessed as diameter of growth inhibition zone at 25 ug/ml after 48-96 hr by agar cup diffusion method; settings: read-out: DIZ
Aspergillus clavatus [36] = test: Antimicrobial activity against Aspergillus clavatus MTCC 1323 assessed as diameter of growth inhibition zone at 250 ug/ml after 48-96 hr by agar cup diffusion method; settings: read-out: DIZ
Pseudomonas aeruginosa [37] = test: Antimicrobial activity against Pseudomonas aeruginosa MTCC 1688 by agar cup diffusion method
Trichophyton rubrum [38] = test: Antimicrobial activity against Trichophyton rubrum MTCC 296 assessed as diameter of growth inhibition zone at 100 ug/ml after 48-96 hr by agar cup diffusion method; settings: read-out: DIZ
Candida albicans [39] = test: Antimicrobial activity against Candida albicans MTCC 227 assessed as diameter of growth inhibition zone at 250 ug/ml after 48-96 hr by agar cup diffusion method; settings: read-out: DIZ
Penicillium [40] = test: Antimicrobial activity against Penicillium wild strain assessed as diameter of growth inhibition zone at 50 ug/ml after 48-96 hr by agar cup diffusion method; settings: read-out: DIZ
Escherichia coli [41] = test: Antimicrobial activity against Escherichia coli MTCC 443 assessed as diameter of growth inhibition zone at 100 ug/ml after 18-24 hr by agar cup diffusion method; settings: read-out: DIZ
Escherichia coli [42] = test: Antimicrobial activity against Escherichia coli MTCC 443 assessed as diameter of growth inhibition zone at 25 ug/ml after 18-24 hr by agar cup diffusion method; settings: read-out: DIZ
Penicillium [43] = test: Antimicrobial activity against Penicillium wild strain assessed as diameter of growth inhibition zone at 100 ug/ml after 48-96 hr by agar cup diffusion method; settings: read-out: DIZ
Streptococcus pyogenes [44] = test: Antimicrobial activity against Streptococcus pyogenes MTCC 442 assessed as diameter of growth inhibition zone at 100 ug/ml after 18-24 hr by agar cup diffusion method; settings: read-out: DIZ
Penicillium [45] = test: Antimicrobial activity against Penicillium wild strain assessed as diameter of growth inhibition zone at 25 ug/ml after 48-96 hr by agar cup diffusion method; settings: read-out: DIZ

## O=C(/C=C/c1ccc(O)cc1)C1C(=O)NC(=S)NC1=O
Staphylococcus aureus [1]
  zone of inhibition at 25 µg/mL: 10 mm
Penicillium [2]
  MFC: > 1000 µg/mL
  MIC: > 1000 µg/mL
Aspergillus clavatus [3]
  zone of inhibition at 50 µg/mL: 21 mm
Klebsiella pneumoniae [4]
  zone of inhibition at 250 µg/mL: 18 mm
Candida albicans [5]
  zone of inhibition at 100 µg/mL: 23 mm
Streptococcus pyogenes [6]
  zone of inhibition at 25 µg/mL: 15 mm
Klebsiella pneumoniae [7]
  zone of inhibition at 25 µg/mL: 10 mm
Pseudomonas aeruginosa [8]
  zone of inhibition at 100 µg/mL: 16 mm
Candida albicans [9]
  MFC: 500 µg/mL (≈ 1720 µM)
  MIC: > 1000 µg/mL
Staphylococcus aureus [10]
  zone of inhibition at 50 µg/mL: 14 mm
Escherichia coli [11]
  zone of inhibition at 50 µg/mL: 17 mm
Klebsiella pneumoniae [12]
  zone of inhibition at 100 µg/mL: 16 mm
Klebsiella pneumoniae [13]
  MBC: 200 µg/mL (≈ 689 µM)
  MIC: 125 µg/mL (≈ 431 µM)
Candida albicans [14]
  zone of inhibition at 25 µg/mL: 16 mm
Trichophyton rubrum [15]
  zone of inhibition at 250 µg/mL: 24 mm
Aspergillus clavatus [16]
  zone of inhibition at 100 µg/mL: 22 mm
Pseudomonas aeruginosa [17]
  zone of inhibition at 250 µg/mL: 18 mm
Staphylococcus aureus [18]
  zone of inhibition at 250 µg/mL: 18 mm
Candida albicans [19]
  zone of inhibition at 50 µg/mL: 20 mm
Escherichia coli [20]
  zone of inhibition at 250 µg/mL: 17 mm
Streptococcus pyogenes [21]
  zone of inhibition at 50 µg/mL: 17 mm
Streptococcus pyogenes [22]
  MBC: 250 µg/mL (≈ 861 µM)
  MIC: 100 µg/mL (≈ 344 µM)
Streptococcus pyogenes [23]
  zone of inhibition at 250 µg/mL: 17 mm
Escherichia coli [24]
  MBC: 250 µg/mL (≈ 861 µM)
  MIC: 250 µg/mL (≈ 861 µM)
Staphylococcus aureus [25]
  MBC: 500 µg/mL (≈ 1720 µM)
  MIC: 250 µg/mL (≈ 861 µM)
Penicillium [26]
  zone of inhibition at 250 µg/mL: 24 mm
Trichophyton rubrum [27]
  zone of inhibition at 50 µg/mL: 22 mm
Trichophyton rubrum [28]
  MFC: > 1000 µg/mL
  MIC: > 1000 µg/mL
Aspergillus clavatus [29]
  zone of inhibition at 25 µg/mL: 21 mm
Klebsiella pneumoniae [30]
  zone of inhibition at 50 µg/mL: 11 mm
Pseudomonas aeruginosa [31]
  zone of inhibition at 50 µg/mL: 14 mm
Pseudomonas aeruginosa [32]
  zone of inhibition at 25 µg/mL: 10 mm
Aspergillus clavatus [33]
  MFC: 500 µg/mL (≈ 1720 µM)
  MIC: 500 µg/mL (≈ 1720 µM)
Staphylococcus aureus [34]
  zone of inhibition at 100 µg/mL: 16 mm
Trichophyton rubrum [35]
  zone of inhibition at 25 µg/mL: 22 mm
Aspergillus clavatus [36]
  zone of inhibition at 250 µg/mL: 24 mm
Pseudomonas aeruginosa [37]
  MBC: 500 µg/mL (≈ 1720 µM)
  MIC: 250 µg/mL (≈ 861 µM)
Trichophyton rubrum [38]
  zone of inhibition at 100 µg/mL: 24 mm
Candida albicans [39]
  zone of inhibition at 250 µg/mL: 23 mm
Penicillium [40]
  zone of inhibition at 50 µg/mL: 19 mm
Escherichia coli [41]
  zone of inhibition at 100 µg/mL: 16 mm
Escherichia coli [42]
  zone of inhibition at 25 µg/mL: 15 mm
Penicillium [43]
  zone of inhibition at 100 µg/mL: 22 mm
Streptococcus pyogenes [44]
  zone of inhibition at 100 µg/mL: 16 mm
Penicillium [45]
  zone of inhibition at 25 µg/mL: 18 mm
